Laboratory results as given in US10821091B2, “Retinoid compositions and methods of increasing immune cell-mediated killing of IDH mutant cancer cells” (UNIVERSITY OF PITTSBURGH—OF THE COMMONWEALTH SYSTEM OF …, priority 2017, dated 2020).
“Also recorded” adds a separate entry of the source.

What was measured:
[1] = system: IDH MUT (IDH1 R132H) tumors; test: CCL2 neutralization in ATRA-treated tumor-bearing mice; type: in vivo; settings: 10 mg/kg ATRA every alternate day, 1 μg anti-CCL2 neutralizing antibody
Description: IDH WT and MUT (IDH1 R132H) tumor-bearing mice were treated with 10 mg/kg ATRA every alternate day starting on day 18 after tumor inoculation. Mice were also injected with 1 μg anti-CCL2 neutralizing antibody (or anti isotype antibody) on the 1st day of ATRA treatment.

[2] = system: ATRA-treated IDH mutant tumors; test: Ex vivo NK killing of resected tumors; type: cell-based, mice; settings: vs DMSO-treated control tumors
Description: (§1) ATRA promotes tumor stasis in IDH mutant tumor-bearing mice. To determine the value of ATRA as a therapeutic modality, its anti-tumor efficacy in vivo was evaluated. Athymic nude mice were implanted with 10^6 IDH mutant or WT primary glioma cells in the flank. 21 days after tumor inoculation (when tumors were about 25 mm^2), 10 mg/kg ATRA was administered every other day for 21 days. Tumors were measured every 3 days. […] Resected tumors from ATRA or DMSO-treated mice were digested to obtain single cell suspensions and assessed for killing by human and mouse NK cells ex vivo.

[3] = system: IDH mutant chondrosarcoma cells (HT-1080 and SW 1353); test: NK killing of chondrosarcoma cells; type: cell-based; settings: different doses of ATRA, 48 hours; at least two chondrosarcoma cell lines
Description: IDH WT chondrosarcoma cells and IDH mutant chondrosarcoma cells were treated with different doses of ATRA or DMSO for 48 hours and were evaluated for killing by NK cells (FIG. 11F). NK cytotoxicity on IDH WT chondrosarcoma cells and IDH mutant chondrosarcoma cells was evaluated.

[4] = system: IDH mutant (HT-1080, R132C IDH1 mutation) chondrosarcoma cells; test: Viability and apoptosis of chondrosarcoma cells; type: cell-based; settings: 48 hours
Description: IDH mutant (HT-1080, R132C IDH1 mutation) chondrosarcoma cells were treated with different doses of ATRA or DMSO for 48 hours. After treatment, cells were evaluated for viability (FIG. 11A) and apoptosis by caspase activity (FIG. 11B). […] Additionally, IDH WT cells and IDH mutant chondrosarcoma cells were treated with different doses of ATRA or DMSO for 48 hours.

[5] = system: RBP1 in IDH mutant (HT-1080) cells; test: RBP1 levels by qPCR in chondrosarcoma cells; type: cell-based; settings: 1 μM or 10 μM ATRA, 48 hours
Source text: IDH mutant tumor cells produce reduced amounts of RBP1 compared to WT IDH tumor cells (FIG. 11D).

[6] = system: IDH mutant cells from primary gliomas; test: Gene microarray (Clariom S) and pathway analysis; type: cell-based, human
Description: To evaluate overall gene expression changes and to decipher pathway activation in IDH mutants after ATRA treatment, a gene microarray was performed. IDH wt and mutant cells from primary gliomas were treated with 1 μM ATRA for 48 hours and RNA was extracted from the cells. Microarray analysis was performed using Clariom S microarray chips.

[7] = system: diffuse IDH mutant glioma; test: ATRA therapy in a human patient, MRI before and after; type: in vivo; settings: 40 mg/m2 ATRA, 21 days on, 7 days off, three months
Description: A patient with diffuse IDH mutant glioma was treated with 40 mg/m2 ATRA on a treatment cycle of 21 days on, 7 days off. MRI images of the patient's brain were performed before (FIG. 12A) and after (FIG. 12B) ATRA treatment.

IDH mutant tumors [8] = test: Comparison of RA isoforms in tumor-bearing mice; type: in vivo
Source text: Mice. […] DMSO-treated mice were used as controls.
Therefore, the efficacy of two other RA isoforms were compared with ATRA in IDH mutant gliomas. […] However, treatment of IDH mutant tumors with all three retinoic acid isoforms reduced tumor size (the bottom 3 data lines at Day 40 having endpoints below 100 mm^2). […] The changes in tumor microenvironment induced by ATRA differed from the other RA isoforms as well.

IDH mutant tumors [9] = test: Flow cytometry of tumor-infiltrating lymphocytes (TILs); type: in vivo; settings: IDH mutant tumor-bearing mice, vs DMSO-treated controls
Description: Flow cytometry for TILs. IDH WT and mutant tumors were dissociated to form a single cell suspension (SCS). The SCS was then overlaid onto sucrose gradient (Lympholyte-M) and centrifuged at 2400 rpm for 20 minutes. Immune cells at the interphase of the 2 liquids were collected and washed once with PBS. The cells were then stained with appropriate antibodies and acquired on a BD LSR Fortessa flow cytometer. Briefly, cells were washed with PBS and stained with 1 μg antibody for 30 minutes at 4° C. After incubation, the cells were washed three times with FACS buffer (PBS+10% FBS+0.1% Na-azide), resuspended in a final volume of 200 μl of FACS buffer and run through the flow cytometer. Flow cytometry data was analyzed on the Flowjo® v9.1 software. Antibodies used for flow cytometry were as follows: CD45- PE-Cy7, NKp46-FITC, CD11b-APC-Cy7, Gr-1-APC, F4/80-eFluor450, Ly6-c-PerCP-Cy5.5 and CD11c-PE.
as §1

[10] = mouse, in vivo
Description: Mice. 6-8 week old Balb/c nude mice (CAnN.Cg-Foxn1nu/Crl) were purchased from Charles River Laboratories. Mice were injected with 10^6 IDH WT or mutant primary glioma cells sub-cutaneously in the right flank. When the tumors were about 25 mm^2, ATRA treatment was started. 10 mg/Kg ATRA was administered to mice intra-peritoneally (i.p.) every alternate day until termination of the experiment. DMSO-treated mice were used as controls. The mice were monitored for signs of drug toxicity such as weight-loss, lethargy, skin lesions and diarrhea. The tumors were measured every 3 days, and the mice were sacrificed when the tumors were about 400 mm^2. For NK depletion experiments, 6-week old B6 nude mice (B6.Cg-Foxn1nu/J) were purchased from The Jackson Laboratory. NK depletion was performed by injecting mice with 200 μg of anti-NK1.1 antibody (Biolegend) i.p. on the day ATRA treatment was started. Mice injected with 200 μg of an isotype antibody were used as controls. Mice were bled and evaluated for circulating NKs by flow cytometry.
Retinoic acid has been used as a chemotherapeutic agent in a wide variety of cancers, in pre-clinical as well as clinical applications. 13-cis-RA is the most common form of RA used in clinics, and is effective in a variety of neoplasms. Therefore, the efficacy of 13-cis RA was compared with ATRA and Bexarotene (a synthetic retinoic acid analogue) in IDH mutant gliomas.

CC1=C(/C=C/C(C)=C/C=C/C(C)=C/C(=O)O)C(C)(C)CCC1 [ATRA, all-trans retinoic acid]
tumor stasis with CCL2 blockade [1]: CCL2 blockade reversed ATRA-mediated tumor stasis | ex vivo killing by human natural killer cells [2]: more susceptible to killing | ex vivo killing by mouse natural killer cells [2]: more susceptible to killing | NK-mediated cell killing [3]: increased NK-mediated cell killing of IDH mutant chondrosarcoma cells | apoptosis by caspase activity ([4]; HT-1080, different doses): induced apoptotic cell death | cell viability ([4]; HT-1080, different doses): decreased cell viability | 7-AAD levels (flow cytometry) ([4]; IDH WT and IDH mutant chondrosarcoma cells, different doses): increased 7-AAD levels corresponding to increased apoptotic cell death in a dose-dependent manner | RBP1 levels [5]: increased RBP1 levels in IDH mutant chondrosarcoma cells in a dose dependent manner | gene expression of inflammatory chemokines CXCL1, CXCL9 and CXCL10 ([6]; 1 μM ATRA 48 hours (data not shown)): upregulated the gene expression of multiple inflammatory chemokines | pathway analysis of upregulated genes ([6]; IDH mutant cells, 1 μM ATRA 48 hours): immune cell chemotaxis was one of the most upregulated pathways | glioma tumor on MRI [7]: reduction in the size and severity of the glioma tumor | efficacy at retarding IDH mutant tumor growth compared among RA isoforms (IDH mutant tumors [8]; ATRA vs 13-cis RA and bexarotene): significantly more effective at retarding IDH mutant tumor growth in vivo; also recorded: the most effective RA isoform in terms of tumor growth | tumor microenvironment immune cells (IDH mutant tumors [8]; after ATRA treatment, compared with 13-cis RA and bexarotene): lower MDSCs and monocytes, and higher DCs and macrophages | gene expression levels of ULBP3 ex vivo (IDH mutant tumors [8]; compared with 13-cis RA and bexarotene): higher gene expression levels of ULBP3 | killing of IDH mutant cells by NK cells (IDH mutant tumors [8]; ex vivo co-culture with human NKs, compared among RA isoforms): significantly increased killing of IDH mutant cells by NK cells; also recorded: highest level of NK-mediated killing | MDSCs and monocytes in TILs (IDH mutant tumors [9]): lower MDSCs and monocytes | NKs in TILs (IDH mutant tumors [9]): higher number | infiltration of immune cells overall (TILs) (IDH mutant tumors [9]): higher infiltration of immune cells overall | macrophages in TILs (IDH mutant tumors [9]): higher number of macrophages | toxicity in treated mice (weight loss and wasting) [10]: not observed in ATRA-treated mice
